Tested on: MT901
Experiment: Intratumoral HER3-DC1 in combination with Taxol
Format: in vivo, mouse
Conditions: 30 days after tumor cells were transferred
Protocol: Taxol alone group received two injections of taxol. DC alone group received DCs once weekly beginning on day 5. DC+Taxol group received two injections of taxol before beginning DC treatment.
MT901, a mouse TNBC cell line, was injected in Balb/c mice and treatment began once tumors were palpable. HER3-DC1 vaccine was injected intratumorally once a week for six weeks. HER3 immune responses were measured in spleens, lymph nodes, and tumors post-vaccination. […] To investigate how the peptides would perform in the context of a therapeutic treatment of an established cancer, 5×10^5 MT901 cells were delivered to a Balb/c mouse s.c. and 5 days later weekly administration of 1×10^6 HER3 pulsed DC cells began and continued for six weeks (FIG. 8). […] To determine if the therapeutic or preventive effect could be improved in combination with an anti-cancer agent, mice were administered HER3-pulsed DC1 in combination with Taxol.

SMILES: CC(=O)O[C@H]1C(=O)[C@@]2(C)[C@H]([C@H](OC(=O)c3ccccc3)[C@]3(O)C[C@H](OC(=O)[C@H](O)[C@@H](NC(=O)c4ccccc4)c4ccccc4)C(C)=C1C3(C)C)[C@]1(OC(C)=O)CO[C@@H]1C[C@@H]2O [taxol, Paclitaxel]
- established tumors: had established tumors

— patent publication US20220370496A1, “HER3 PULSED DC1 THERAPY” (H. LEE MOFFITT CANCER CENTER AND RESEARCH INSTITUTE, INC., priority 2019, published 2022)
